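48-hour exposure; five concentrations; linearly interpolated endpoints. The concentration for 50% growth inhibition is given as GI50. TGI: concentration producing complete growth inhibition.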

Here are results for nine compounds from PubChem BioAssay (NCI).

Common to all, as to test: NCI tumour cell line growth inhibition, 48 h
Experiment [1] deals with COLO 205 colon.
Experiment [2] deals with SK-MEL-28 melanoma.
The subject of experiment [3] is CCRF-CEM leukemia.
The subject of experiment [4] is SW-620 colon.
For experiment [5], the system named is DU-145 prostate.
In experiment [6] the test system is MDA-MB-231 breast.
Experiment [7] relates to SF-539 CNS.
Experiment [8] deals with NCI-H23 lung.
Experiment [9] has as its system MALME-3M melanoma.
The test system of experiment [10] is TK-10 renal.

Take `BrCC[N+]12CCCN1CCC2`: the TGI in experiment [1] was 10.5 µM; in experiment [2] it was 26.5 µM; in experiment [3] it was 4.87 µM; in experiment [4], 7.39 µM; in experiment [5], over 100 µM; in experiment [6], 34 µM. In addition, the TGI in experiment [7] turned out to be 32.9 µM; in [8], 36.6 µM; in experiment [9], 5.2 µM; in [10], 27.9 µM.

On to `Cn1cc(C2=C(c3cccc(Cl)c3)C(=O)NC2=O)c2ccccc21`, for which the GI50 in experiment [1] is 5.65 µM; in experiment [2] it was over 17.5 µM; in experiment [3], over 25 µM; in [4], over 25 µM; in experiment [5], over 25 µM; in [6], over 12.6 µM. The GI50 was over 25 µM in [7], over 25 µM in [8], over 25 µM in experiment [9] and 13.4 µM in experiment [10]. Further, the TGI in experiment [1] was 14.4 µM; in [2] it was over 25 µM; in [3], over 25 µM; in experiment [4], over 25 µM; in experiment [5] it was over 25 µM; in experiment [6], over 25 µM. Moreover, the TGI in experiment [7], in experiment [8], in [9] and in [10] was over 25 µM in each case.

`O=C1c2ccccc2-c2c1c1ccccc1c(=O)n2CCCNCCO`: the GI50 in [1] is 0.63 µM; in [2], 1.24 µM; in experiment [3], 0.165 µM; in experiment [4], 0.145 µM; in [5], 0.189 µM; in experiment [6], 1.5 µM. The GI50 was 0.578 µM in experiment [7], 0.818 µM in experiment [8], 0.511 µM in experiment [9] and 1.33 µM in [10]. Also, the TGI in [1] is 3.75 µM; in experiment [2], 2.95 µM; in experiment [3] it was 1.11 µM; in [4], 5.26 µM; in experiment [5] it was 4.72 µM; in experiment [6], 6.55 µM. In addition, the TGI in [7] worked out at 2.96 µM; in [8] it was 4.97 µM; in [9] it was 1.93 µM; in [10], 7.44 µM.

Regarding `CN1CCN(Cc2ccc(NC(=O)c3cncc(C#Cc4cncc5[nH]ncc45)c3)cc2C(F)(F)F)CC1`, the GI50 in experiment [1] was 0.192 µM; in [2], 0.208 µM; in experiment [3] it was 1.25 µM; in [4], 0.611 µM; in experiment [5], 1.36 µM; in experiment [6] it was 0.23 µM. Further, the GI50 is 0.411 µM in experiment [7], 0.488 µM in [8], 0.0987 µM in [9] and 1.38 µM in experiment [10]. Also, the TGI was 3.56 µM in experiment [1]; 1.96 µM in experiment [2]; 5.07 µM in experiment [3]; 3.64 µM in experiment [4]; 6.45 µM in experiment [5]; 1.04 µM in experiment [6]. The TGI in experiment [7] is 1.28 µM; in experiment [8], 4.29 µM; in [9], 0.383 µM; in experiment [10], 5.43 µM.

Regarding `CCN(CC)CCn1nc2c3c(cccc3c1=O)-c1ccccc1-2`, the GI50 was 1.86 µM in experiment [1]; 2.56 µM in experiment [2]; 2.08 µM in experiment [3]; 1.89 µM in experiment [4]; 2.11 µM in [5]; 4.92 µM in experiment [6]. Moreover, the GI50 in experiment [7] is 2.78 µM; in experiment [8], 1.82 µM; in experiment [9], 1.67 µM; in experiment [10], 2.09 µM. For the same compound, the TGI is 10.2 µM in [1]; 15.6 µM in [2]; 45.9 µM in experiment [3]; over 50 µM in experiment [4]; over 50 µM in experiment [5]; 19.4 µM in [6]. Further, the TGI in [7] stood at 11.7 µM; in [8], 8.98 µM; in [9] it was 7.37 µM; in [10], 34.4 µM.

On to `C=C(C)[C@@H]1CC[C@@H]2C(=CC[C@]3(C)C([C@H](C)CC/C=C(/C)C(=O)O)CC[C@@]23C)[C@@]1(C)CCC(=O)O` (stereo not given in full), for which the TGI is 39.9 µM in [1]; 98.9 µM in experiment [2]; 53.7 µM in [3]; over 100 µM in experiment [4]; 60.5 µM in [5]; 60.2 µM in [6]. Further, the TGI in experiment [7] was 89 µM; in experiment [8] it was 57.2 µM; in [9] it was 61 µM; in experiment [10], over 100 µM.

For `O=[N+]([O-])C1(CO)COC2(OC1)c1ccccc1-c1ccccc12`, the TGI in experiment [1] is over 82.4 µM; in experiment [2], over 100 µM; in [3], 71 µM; in experiment [4], 44.5 µM; in experiment [5] it was over 100 µM; in experiment [6], over 100 µM. Besides, the TGI in [7] is over 85.6 µM; in experiment [8] it was over 100 µM; in experiment [9] it was 73.9 µM; in [10] it was over 100 µM.

Regarding `NS(=O)(=O)c1ccc(N=Nc2cc3ccccc3c(C(=O)O)c2O)cc1`, the TGI was over 100 µM in experiment [1]; over 100 µM in experiment [2]; over 100 µM in experiment [3]; over 100 µM in [4]; over 100 µM in [5]; 97 µM in experiment [6]. The TGI is over 100 µM in [7], over 100 µM in experiment [8], over 82 µM in [9] and over 80.6 µM in [10].

For the compound `CCN(Cc1cccc(C)c1)c1ccc(CO)c(Cl)c1`, the GI50 in experiment [1] is 2.53 µM; in experiment [2], 15.1 µM; in experiment [3] it was 15.6 µM; in experiment [4], 2.33 µM; in experiment [5], 14.8 µM; in experiment [6] it was 14.1 µM. The GI50 in experiment [7] is 17.3 µM; in [8], 10.1 µM; in [9] it was 15.7 µM; in experiment [10] it was 0.113 µM. The TGI stood at 6.92 µM in experiment [1]; 39.5 µM in experiment [2]; 39.8 µM in experiment [3]; 18 µM in experiment [4]; 28.9 µM in experiment [5]; 30.8 µM in [6]. Further, the TGI in [7] amounted to 32.4 µM; in experiment [8], 25.5 µM; in [9], 33.4 µM; in experiment [10], 0.36 µM.
